Experimental data as given in patent publication US20200225244A1, “COMPOSITIONS AND METHODS FOR ASSESSING PAINFUL DEMYELINATING AND NONDEMYELINATING DISEASES” (Sanford Burnham Prebys Medical Discovery Institute, priority 2017, published 2020).

Assays:
[1] = system: gelatinolytic urinary MMPs; settings: 20 mM EDTA; urine of CCI rats, day 0, 1 and 28
Procedure: The urine samples collected at day 0 (prior to injury) and days 1 and 28 post-CCI (n=4-6/group) were equilibrated in MMP buffer, pH 7.5 and then the protein concentrations were determined using the Bradford assay and made even by sample dilution in MMP buffer, pH 7.5. Dialyzed urine samples were analyzed by gelatin zymography. […] The urine samples collected at day 0 (CTR) and 28 post-CCI (CCI) (n=4-5/group) were equilibrated in MMP buffer, pH 7.5, and then the protein concentrations were determined using the Bradford assay. Dialyzed urine samples were co-incubated with the fluorescent Mca-PLGL-Dpa-AR-NH2 MMP substrate in the presence and the absence of GM6001, a broad-spectrum hydroxamate MMP inhibitor.
The dialyzed rat urine samples equilibrated in MMP buffer, pH 7.5, the crude nerve extracts and the MMP-9 samples isolated from sciatic nerve were analyzed by gelatin zymography in a 10% acrylamide-0.1% gelatin gel. […] Where indicated, gels were incubated in 20 mM EDTA to inactivate MMP activity.

[2] = molecular target: T1, α2δ1 subunit of the voltage-gated Ca^2+ channel (Homo sapiens, UniProt P54289); settings: animal studies; Ohashi et al. 2008; cited from earlier work
T1 construct: PD-217,014 produces visceral analgesic effects in animal studies

female rats = settings: single intra-neural injection into intact sciatic nerve, Liu et al. 2012; cited from earlier work

T1 sequence (P54289 25-1103): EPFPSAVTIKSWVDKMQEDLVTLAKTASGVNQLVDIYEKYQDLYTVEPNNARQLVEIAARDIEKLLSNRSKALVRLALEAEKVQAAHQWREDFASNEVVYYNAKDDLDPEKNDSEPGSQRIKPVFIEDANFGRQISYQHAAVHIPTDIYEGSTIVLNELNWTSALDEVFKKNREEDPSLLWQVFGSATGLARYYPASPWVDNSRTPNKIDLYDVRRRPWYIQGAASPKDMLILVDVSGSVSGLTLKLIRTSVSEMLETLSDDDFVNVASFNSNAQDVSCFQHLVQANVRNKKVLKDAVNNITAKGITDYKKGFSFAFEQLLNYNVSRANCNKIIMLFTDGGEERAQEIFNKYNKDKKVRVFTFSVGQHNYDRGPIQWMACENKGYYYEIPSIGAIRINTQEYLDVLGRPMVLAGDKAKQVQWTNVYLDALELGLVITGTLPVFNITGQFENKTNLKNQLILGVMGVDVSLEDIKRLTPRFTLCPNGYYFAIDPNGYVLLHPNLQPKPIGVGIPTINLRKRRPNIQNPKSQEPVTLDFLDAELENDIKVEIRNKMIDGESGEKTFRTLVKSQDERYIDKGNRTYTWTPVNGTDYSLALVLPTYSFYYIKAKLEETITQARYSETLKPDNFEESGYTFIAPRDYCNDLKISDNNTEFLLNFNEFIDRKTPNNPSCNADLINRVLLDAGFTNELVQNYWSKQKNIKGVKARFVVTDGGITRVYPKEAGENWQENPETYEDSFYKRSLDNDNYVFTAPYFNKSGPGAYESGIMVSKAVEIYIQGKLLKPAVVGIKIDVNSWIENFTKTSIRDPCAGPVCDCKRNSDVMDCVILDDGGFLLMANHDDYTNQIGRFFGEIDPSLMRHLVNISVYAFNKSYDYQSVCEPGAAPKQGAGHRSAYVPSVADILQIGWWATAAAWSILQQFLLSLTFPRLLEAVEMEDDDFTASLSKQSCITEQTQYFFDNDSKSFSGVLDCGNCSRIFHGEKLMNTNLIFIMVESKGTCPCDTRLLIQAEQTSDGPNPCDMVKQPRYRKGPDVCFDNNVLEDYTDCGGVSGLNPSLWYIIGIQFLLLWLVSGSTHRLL
T1 sequence (P54289 957-1103): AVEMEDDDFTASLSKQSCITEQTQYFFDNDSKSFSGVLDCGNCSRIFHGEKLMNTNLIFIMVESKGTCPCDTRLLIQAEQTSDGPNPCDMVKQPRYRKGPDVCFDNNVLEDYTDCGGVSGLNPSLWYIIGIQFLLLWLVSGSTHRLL

O=C(O)CN(CCN(CC(=O)O)CC(=O)O)CC(=O)O [EDTA]
effect on MMP-related gelatinolytic bands [1]: repressed all of the MMP-related gelatinolytic bands

NC[C@@]1(CC(=O)O)C[C@H]2CC[C@H]2C1 [PD-217,014]
visceral analgesic effects, potency and efficacy compared with gabapentin [2]: higher potency and efficacy than gabapentin

ENPVVHFFKNIVTPRTPPPSQ (synthetic wild-type (MBP84-104-WT)) [synthetic algesic myelin basic protein-derived peptide, region 84-104 of human MBP]
mechanical allodynia after injection (female rats): causes a robust and long-lasting mechanical allodynia
